Experimental data from patent US6828318B2 (priority 2000, dated 2004).
Where a name gives a salt, the structure may show the parent alone.

Tests used:
[1] = molecular target: PCP site of the NMDA receptor; test: NMDA receptor binding: displacement of [3H]-MK-801 from rat cortical homogenates; details: rat cortical membranes, 5 nM [3H]-MK-801, 10 μM glutamate, 10 μM glycine; read-out: IC50, potency to displace [3H]-MK-801 from rat cortical homogenates
Excerpt: The NMDA receptor contains several distinct binding domains that can regulate opening of the cationic channel. The phencyclidine (PCP) site of the NMDA receptor can be radiolabeled with [^3H]-(+)-5-methyl-10,11-dihydro-5H-dibenzo[a,d]cyclohepten-5,10-imine hydrogen maleate, [^3H-MK-801]. The following describes the procedure for determining the affinity of compounds for the PCP site in rat cortical membranes.
Frozen rat cortex, homogenized in 10 volumes of ice-cold 0.32-M sucrose is centrifuged at 1,000 g for 12 min and the supernatant stored on ice whilst the pellet is resuspended, rehomogenized and recentrifuged twice more. The three final supernatants are pooled and centrifuged at 30,000 g for 40 min at 4° C. to yield P2 pellets. These are resuspended in ice-cold distilled water, and centrifuged at 30,000 g for 50 min at 4° C. Following three further washes in distilled water, the P2 pellets are stored at −20° C. for at least 18 h. On the day of the assay, membrane pellets are thawed at room temperature, resuspended in ice-cold distilled water and centrifuged at 30,000 g for 20 min. The pellets are resuspended in 50-mM tris-HCl (pH:7.4) and recentrifuged twice more before being resuspended in tris-HCl for immediate use in the assay. Binding assays are performed at equilibrium in a total volume of 200 μL, containing [^3H]-MK-801 (5-nM final conc.), 10-μM glutamate, 10-μM glycine, 160 μL of membrane preparation and additional drugs where appropriate. Non-specific binding is determined using MK-801 (10-μM). The assay is incubated for 120 min at room temperature. The incubation is terminated by rapid filtration through Whatman GF/B filters (pre-soaked in 0.1% PEI solution). The assay tubes and filters are washed five times with 1 mL of ice-cold assay buffer. The filters are placed in poly-Q mini vials with approximately 5 mL of scintillation fluid. The vials are then shaken and left for at least 8 h before being counted on a liquid scintillation counter. To determine the free ligand concentration 3 aliquots (20 μL) of the [^3H]-MK-801 working solution are also counted. Concentration response data for drugs is analysed using a 4 parameter equation fitted by non-linear regression. This yields the half maximally effective drug concentration (IC50) and Hill coefficient.

[2] = system: male Sprague Dawley rats; test: Assessment of analgesia: sub-plantar formalin injection into the rat hind paw; format: in vivo; details: rat formalin test, second phase t=5 to t=30 min, drug 20 min before formalin
Experimental: Analgesia testing was performed in male Sprague Dawley rats weighing 200-250 g. Drugs were administered 20 minutes prior to a sub-plantar injection of formalin into the right hind paw. The characteristic nociceptive behavioural responses elicited by this injection were rated on a scale from “0”=no effect through to “3”=effect of maximal intensity. As with side effect ratings, all observations were made blind to treatment condition. Ratings of nociception related behaviours were made in two time periods, one from the time of injection for a further five minutes (t=0 to t=5 min), and a second from t=5 min to t=30 min. The response to formalin injection in this model is biphasic, the first phase occurring during the first five minutes consists of a primary inflammation related response. The second phase, occurring over the subsequent 30 minutes is a delayed phase in which the phenomenon of “wind up” or neurally mediated hyperalgesia, is thought to occur. It is the second phase of response that has relevance to sciatica, diabetic neuropathy and other neuropathic chronic pain states. Responses to test compounds were assessed during this second phase from t=5 min to t=30 min. Data were analysed by means of Median tests followed by post hoc Bonferroni corrected Mann-Whitney U-tests.

[3] = system: male Sprague Dawley rats; test: Assessment of side-effect liability (PCP syndrome), behavioural rating; format: in vivo, rat
Experimental: Side effect liability was assessed by utilising a standardised […] rating of behaviours recognised to be elicited by prototypical psychotomimetic NMDA receptor channel blockers such as phencyclidine and aptiganel (Cerestat™), similar to those reported by Martin et al., Life Sci 1979 24:1699-1703. Groups of eight male Sprague Dawley rats weighing 250-280 g. were placed in Plexiglass chambers and administered test compounds. After 20 minutes the percentage of rats in each group showing the behaviours noted in Table 2 was rated.
Ratings were plotted on ethograms to illustrate the profile of effect of each test compound.

Row | SMILES | melting point | IC50 [1] [µM] | Minimum effective dose on nociception related behaviours [2] [mg/kg] | also measured
1 | NCCC1(Cc2ccccc2)C2CC3CC(C2)CC1C3 (centres unmarked) (as salt: hydrochloride) | 195.8 to 196.8 °C | – | – | –
2 | Cc1ccc(C2(CC(C)N)C3CC4CC(C3)CC2C4)cc1 (centres unmarked) (as salt: hydrochloride) | 344 to 346 °C | – | – | –
3 | NCCC1(c2ccccc2)C2CC3CC(C2)CC1C3 (centres unmarked) (as salt: hydrochloride) [Example 1, 2-[2-(2-Phenyl)adamantyl]ethylamine hydrochloride] | 278 to 281 °C (dec.) | – | – | –
4 | NCCC1(c2cccs2)C2CC3CC(C2)CC1C3 (centres unmarked) (as salt: hydrochloride) [Example 2, 2-[2-[2-(2-Thienyl)]adamantyl]ethylamine hydrochloride] | 250.6 to 251.9 °C | – | – | –
5 | NCCC1(c2ccccc2)C2CC3CC(C2)CC1C3 (centres unmarked) [Example 1, 2-[2-(2-Phenyl)adamantyl]ethylamine hydrochloride] | – | 1.09 ± 0.4 | 20 | Elicitation of PCP syndrome (PCP related behaviours) ([3]; rats, intraperitoneal, twenty minutes prior to test, groups of n=8, hydrochloride): no tendency to elicit “PCP syndrome.”
6 | NCCC1(c2cccs2)C2CC3CC(C2)CC1C3 (centres unmarked) [Example 2, 2-[2-[2-(2-Thienyl)]adamantyl]ethylamine hydrochloride] | – | 2.7 ± 0.54 | – | –
7 | CNC1(c2ccccc2Cl)CCCCC1=O (centres unmarked) [Ketamine, reference compound] | – | 6.51 ± 4.54 | 20 | Elicitation of PCP syndrome (PCP related behaviours) ([3]; rats, intraperitoneal, twenty minutes prior to test, groups of n=8): produces “PCP syndrome”
8 | CC12CC3CC(C)(C1)CC(N)(C3)C2 [Memantine, reference compound] | – | 6.5 ± 0.94 | 10 | Elicitation of PCP syndrome (PCP related behaviours) ([3]; rat, in vivo, ip): elicits “PCP syndrome”
